The target of assay [1] is T1, N-terminally FLAG-tagged PARP2 (amino acids 1-583) (Homo sapiens, UniProt Q9UGN5).
T1 construct: N-terminally FLAG-tagged PARP2 (amino acids 1-583)
The assay can be described thus: PARP2 probe displacement HTRF assay. It counts as binding. The following applies: binned Kd, PARP2 probe displacement HTRF. As for the experimental part:
Data analysis was performed identical as for PARP1.

Assay [2] concerns the target T2, full length N-terminally FLAG-tagged PARP1 (Homo sapiens, UniProt P09874). The experiment in a line: PARP1 probe displacement HTRF assay. Particulars: for Kd: binned Kd, PARP1 probe displacement HTRF; for Selectivity: PARP1 over PARP2, ratio Kd (PARP2)/Kd (PARP1), probe displacement HTRF.
In assay [3] the target is T2, full length N-terminally FLAG-tagged PARP1. The assay can be described thus: PARP1 biochemical DELFIA assay (auto-PARylation). The following applies: binned IC50, PARP1 biochemical DELFIA assay. More on the design: recombinant full length human N-terminally FLAG-tagged PARP1.

The structures appear in SMILES notation. Like-named read-outs stand apart in the source and are kept apart here.

T1 sequence (Q9UGN5 whole entry, the tested form may be a part): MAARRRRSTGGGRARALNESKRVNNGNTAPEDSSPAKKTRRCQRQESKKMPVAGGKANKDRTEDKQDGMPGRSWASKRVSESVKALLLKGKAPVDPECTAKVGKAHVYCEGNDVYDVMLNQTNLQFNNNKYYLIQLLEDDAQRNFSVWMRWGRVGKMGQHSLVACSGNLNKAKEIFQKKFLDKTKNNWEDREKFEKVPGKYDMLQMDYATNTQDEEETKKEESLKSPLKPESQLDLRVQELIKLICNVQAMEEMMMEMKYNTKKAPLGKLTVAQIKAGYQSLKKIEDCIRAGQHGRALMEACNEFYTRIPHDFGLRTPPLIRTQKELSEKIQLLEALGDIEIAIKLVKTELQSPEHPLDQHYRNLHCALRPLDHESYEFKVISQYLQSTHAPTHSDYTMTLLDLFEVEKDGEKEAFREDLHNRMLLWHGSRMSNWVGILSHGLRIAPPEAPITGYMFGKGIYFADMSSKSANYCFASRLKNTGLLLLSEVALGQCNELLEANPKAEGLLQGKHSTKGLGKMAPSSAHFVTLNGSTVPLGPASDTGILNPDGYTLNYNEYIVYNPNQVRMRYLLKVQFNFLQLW
T2 sequence (P09874 whole entry): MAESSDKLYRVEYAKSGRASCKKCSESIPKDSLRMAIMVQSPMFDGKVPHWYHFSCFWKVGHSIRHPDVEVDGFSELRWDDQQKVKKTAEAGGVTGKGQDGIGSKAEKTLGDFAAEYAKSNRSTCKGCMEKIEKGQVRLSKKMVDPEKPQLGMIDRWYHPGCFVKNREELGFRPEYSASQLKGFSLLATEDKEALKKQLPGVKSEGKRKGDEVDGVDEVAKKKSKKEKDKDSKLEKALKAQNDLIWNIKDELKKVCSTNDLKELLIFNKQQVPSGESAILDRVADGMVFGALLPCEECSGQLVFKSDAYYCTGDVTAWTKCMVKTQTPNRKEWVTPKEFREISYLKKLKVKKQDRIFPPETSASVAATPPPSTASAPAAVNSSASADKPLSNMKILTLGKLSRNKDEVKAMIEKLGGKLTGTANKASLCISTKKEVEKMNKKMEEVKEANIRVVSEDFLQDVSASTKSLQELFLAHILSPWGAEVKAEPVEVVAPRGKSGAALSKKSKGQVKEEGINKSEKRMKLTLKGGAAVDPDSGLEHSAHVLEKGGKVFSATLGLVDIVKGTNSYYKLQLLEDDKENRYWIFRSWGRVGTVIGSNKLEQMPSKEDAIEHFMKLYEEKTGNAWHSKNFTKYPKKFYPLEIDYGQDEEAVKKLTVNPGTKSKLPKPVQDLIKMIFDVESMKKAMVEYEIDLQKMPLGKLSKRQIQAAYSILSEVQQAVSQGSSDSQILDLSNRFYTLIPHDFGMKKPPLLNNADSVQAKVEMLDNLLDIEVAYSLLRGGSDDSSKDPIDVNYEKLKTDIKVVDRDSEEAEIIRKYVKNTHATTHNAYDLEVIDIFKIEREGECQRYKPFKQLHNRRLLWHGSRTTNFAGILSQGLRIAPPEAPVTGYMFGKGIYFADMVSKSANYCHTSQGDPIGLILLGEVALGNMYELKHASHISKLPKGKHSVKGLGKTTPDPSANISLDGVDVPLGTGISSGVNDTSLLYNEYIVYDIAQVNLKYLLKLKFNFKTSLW

Take `CNC(=O)c1ccc(OCCN2CCCC(Cc3nc4ccccc4c(=O)[nH]3)C2)cn1` (single isomer, unassigned) [Compound 14b, N-methyl-5-(2-(3-((4-oxo-3,4-dihydroquinazolin-2-yl)methyl)piperidin-1-yl)ethoxy)picolinamide]: the Kd was above 10000 nM in assay [1] and 10 to 100 nM in assay [2] (PARP1 HTRF). In assay [2], the Selectivity entry is recorded as “+++ (+++ indicate a value of at least 100)”. In assay [3], the IC50 lay in the range of 10 to 100 nM.
As to `CNC(=O)c1ccc(N2CC(N3CCCC(c4nc5ccccc5c(=O)[nH]4)C3)C2)cn1` (single isomer, unassigned) [Compound 23b], the values for the Kd in assay [1] and in assay [2] (read-out: PARP1 HTRF) were above 10000 nM and 1000 to 10000 nM, respectively. In addition, the Selectivity result in assay [2] is given as “− (− indicates a value of less than 10)”. The IC50 in assay [3] is 1000 to 10000 nM.
As to `CCc1cnc(C2CCCN(C3CCN(c4ccc(C(=O)NC)nc4)CC3)C2)[nH]c1=O` (single isomer, unassigned) [Compound 31b], the Kd is above 10000 nM in assay [1] and 10 to 100 nM in assay [2] (read-out: PARP1 HTRF). Moreover, the Selectivity result in assay [2] is “+++ (+++ indicate a value of at least 100)”. The half-maximal inhibitory concentration (IC50) in assay [3] was 10 to 100 nM.
Take `O=c1[nH]c(C2CCN(C3CCN(c4ccccc4)CC3)C2)nc2ccccc12` (single isomer, unassigned) [Compound 32a]: the Kd in assay [1] lay within 1000 to 10000 nM; in assay [2] (read-out: PARP1 HTRF), 10 to 100 nM. Moreover, the Selectivity entry in assay [2] was “+ (+ indicates a value of 10 to less than 50)”. The IC50 in assay [3] lay within 10 to 100 nM.
As to `CNC(=O)c1ccc(N2CCC(N3CCCC(c4ncc(C)c(=O)[nH]4)C3)CC2)cn1` (single isomer, unassigned) [Compound 33b], the Kd in assay [1] is above 10000 nM; in assay [2] (read-out: PARP1 HTRF), 10 to 100 nM. Moreover, in assay [2], the Selectivity result was “++ (++ indicates a value of 50 to less than 100)”. Besides, in assay [3], the 50% inhibitory concentration (IC50) is 10 to 100 nM.
For the compound `N#Cc1ccc(N2CCC(N3CCC(c4nc5ccccc5c(=O)[nH]4)C3)CC2)cc1` (single isomer, unassigned) [Compound 34a], the Kd was 100 to 1000 nM in assay [1] and 10 to 100 nM in assay [2] (read-out: PARP1 HTRF). For the same compound, in assay [2], the Selectivity entry is “− (− indicates a value of less than 10)”. Also, in assay [3], the concentration for half-maximal inhibition (IC50) lay in the range of 10 to 100 nM.
Take `N#Cc1ccc(N2CCC(N3CCC(c4nc5ccccc5c(=O)[nH]4)C3)CC2)cc1` (single isomer, unassigned) [Compound 34b]: the Kd in assay [1] is 1000 to 10000 nM; in assay [2] (read-out: PARP1 HTRF), below 10 nM. Further, in assay [2], the Selectivity entry was “+++ (+++ indicate a value of at least 100)”. In assay [3], the IC50 was below 10 nM.
For `CNC(=O)c1ccc(N2CCC(N3CCC(c4ncc(C)c(=O)[nH]4)C3)CC2)cn1` (single isomer, unassigned) [Compound 35b], the Kd is above 10000 nM in assay [1] and 10 to 100 nM in assay [2] (read-out: PARP1 HTRF). The Selectivity entry in assay [2] was “+++ (+++ indicate a value of at least 100)”. Further, the half-maximal inhibitory concentration (IC50) in assay [3] was in the range of 10 to 100 nM.
As for `CCc1cnc(C2CCN(C3CCC(F)(F)CC3)C2)[nH]c1=O` (single isomer, unassigned) [Compound 38a], the Kd in assay [1] and in assay [2] (read-out: PARP1 HTRF) was 1000 to 10000 nM in each case. The Selectivity entry in assay [2] is “− (− indicates a value of less than 10)”. The IC50 in assay [3] is 1000 to 10000 nM.
As for `CCc1cnc(C2CCN(C3CCC(F)(F)CC3)C2)[nH]c1=O` (single isomer, unassigned) [Compound 38b], the Kd in assay [1] is above 10000 nM; in assay [2] (read-out: PARP1 HTRF), 1000 to 10000 nM. Besides, in assay [2], the Selectivity result is listed as “− (− indicates a value of less than 10)”. Further, in assay [3], the half-maximal inhibitory concentration (IC50) was 1000 to 10000 nM.
On to `O=c1[nH]c(C2CCN(C3CCN(c4ccc(Cl)cc4)CC3)C2)nc2ccccc12` (single isomer, unassigned) [Compound 43a], for which the Kd in assay [1] was 100 to 1000 nM; in assay [2] (read-out: PARP1 HTRF) it was 10 to 100 nM. Moreover, in assay [2], the Selectivity entry is recorded as “− (− indicates a value of less than 10)”. The concentration for half-maximal inhibition (IC50) in assay [3] fell in the range of 100 to 1000 nM.
In the case of `O=c1[nH]c(C2CCN(C3CCN(c4ccc(Cl)cc4)CC3)C2)nc2ccccc12` (single isomer, unassigned) [Compound 43b], the Kd in assay [1] was 100 to 1000 nM; in assay [2] (read-out: PARP1 HTRF) it was below 10 nM. Moreover, in assay [2], the Selectivity result is on record as “+ (+ indicates a value of 10 to less than 50)”. Moreover, the IC50 in assay [3] is below 10 nM.
With `CNC(=O)c1ccc(N2CCC(N3CCCC(c4nc5c(Cl)cccc5c(=O)[nH]4)C3)CC2)cn1` (single isomer, unassigned) [Compound 44a], the Kd is above 10000 nM in assay [1] and below 10 nM in assay [2] (read-out: PARP1 HTRF). Also, the Selectivity result in assay [2] was “+++ (+++ indicate a value of at least 100)”. Further, the IC50 in assay [3] was below 10 nM.
Consider `CNC(=O)c1ccc(N2CCC(N3CCCC(c4nc5c(Cl)cccc5c(=O)[nH]4)C3)CC2)cn1` (single isomer, unassigned) [Compound 44b], for which the Kd in assay [1] lay within 1000 to 10000 nM; in assay [2] (read-out: PARP1 HTRF), 10 to 100 nM. In addition, the Selectivity entry in assay [2] is on record as “+ (+ indicates a value of 10 to less than 50)”. For the same compound, the IC50 in assay [3] was in the range of 10 to 100 nM.
Consider `CNC(=O)c1ccc(N2CCC(N3CCC(c4nc5ccccc5c(=O)[nH]4)C3)CC2)nc1` (single isomer, unassigned) [Compound 46a], for which the figures for the Kd in assay [1] and in assay [2] (read-out: PARP1 HTRF) were 1000 to 10000 nM and 10 to 100 nM, respectively. The Selectivity result in assay [2] is given as “+++ (+++ indicate a value of at least 100)”. For the same compound, the half-maximal inhibitory concentration (IC50) in assay [3] is below 10 nM.
Regarding `CNC(=O)c1ccc(N2CCC(N3CCC(c4nc5ccccc5c(=O)[nH]4)C3)CC2)nc1` (single isomer, unassigned) [Compound 46b], the Kd in assay [1] and in assay [2] (read-out: PARP1 HTRF) was 100 to 1000 nM throughout. In addition, in assay [2], the Selectivity entry is reported as “− (− indicates a value of less than 10)”. Moreover, the concentration for half-maximal inhibition (IC50) in assay [3] lay within 100 to 1000 nM.
Consider `CNC(=O)c1ccc(N2CCC(CN3CCC(c4nc5ccccc5c(=O)[nH]4)CC3)C2)cn1` (single isomer, unassigned) [Compound 50a], for which the values for the Kd in assay [1] and in assay [2] (read-out: PARP1 HTRF) were 1000 to 10000 nM and 10 to 100 nM, respectively. In addition, the Selectivity entry in assay [2] was “+ (+ indicates a value of 10 to less than 50)”. Moreover, the half-maximal inhibitory concentration (IC50) in assay [3] is 10 to 100 nM.
In the case of `CNC(=O)c1ccc(N2CCC(CN3CCC(c4nc5ccccc5c(=O)[nH]4)CC3)C2)cn1` (single isomer, unassigned) [Compound 50b], the Kd in assay [1] was above 10000 nM; in assay [2] (read-out: PARP1 HTRF), 10 to 100 nM. Also, the Selectivity entry in assay [2] is reported as “+++ (+++ indicate a value of at least 100)”. Besides, the concentration for half-maximal inhibition (IC50) in assay [3] was 10 to 100 nM.
Consider `CNC(=O)c1ccc(N2CC(N3CCCC(Cc4nc5ccccc5c(=O)[nH]4)C3)C2)cn1` (single isomer, unassigned) [Compound 51a], for which the Kd in assay [1] is above 10000 nM; in assay [2] (read-out: PARP1 HTRF), 100 to 1000 nM. The Selectivity result in assay [2] is on record as “+ (+ indicates a value of 10 to less than 50)”. Further, the half-inhibitory concentration (IC50) in assay [3] was in the range of 100 to 1000 nM.
As to `CNC(=O)c1ccc(N2CC(N3CCCC(Cc4nc5ccccc5c(=O)[nH]4)C3)C2)cn1` (single isomer, unassigned) [Compound 51b], the Kd in assay [1] and in assay [2] (read-out: PARP1 HTRF) was 1000 to 10000 nM throughout. In addition, in assay [2], the Selectivity result is on record as “− (− indicates a value of less than 10)”. In addition, in assay [3], the concentration for half-maximal inhibition (IC50) was in the range of 1000 to 10000 nM.
As to `CNC(=O)c1ccc(N2CCC(N3CCC(c4nc5c(Cl)cccc5c(=O)[nH]4)C3)CC2)cn1` (single isomer, unassigned) [Compound 52a, 5-(4-(3-(8-chloro-4-oxo-3,4-dihydroquinazolin-2-yl)pyrrolidin-1-yl)piperidin-1-yl)-N-methylpicolinamide], the values for the Kd in assay [1] and in assay [2] (PARP1 HTRF) were 100 to 1000 nM and 10 to 100 nM, respectively. The Selectivity entry in assay [2] is on record as “− (− indicates a value of less than 10)”. Also, in assay [3], the IC50 lay within 10 to 100 nM.

In general, IC50 refers to the point on the concentration scale where inhibition reaches its midpoint.

The values above are taken from patent US20250152585A1, “PHARMACEUTICAL COMPOUND” (Duke Street Bio Limited, priority 2022, published 2025).
